From ChEMBL document CHEMBL5537187, “Discovery of N-(1-(6-Oxo-1,6-dihydropyrimidine)-pyrazole) Acetamide Derivatives as Novel Noncovalent DprE1 Inhibitors against Mycobacterium tuberculosis” (J Med Chem, 2024)
Activity calls are given as the source filed them. The rule behind the calls is not given here.

Tested on: Mycolicibacterium smegmatis
Experiment: Antimycobacterial activity against Mycobacterium smegmatis overexpressing Mtb DprE1 assessed as inhibition of bacterial growth by resazurin dye based analysis
Assay type: functional, organism-based

With `CO[C@H]1/C=C/O[C@@]2(C)Oc3c(C)c(O)c4c(O)c(c(/C=N/N5CCN(C)CC5)c(O)c4c3C2=O)NC(=O)/C(C)=C\C=C\[C@H](C)[C@H](O)[C@@H](C)[C@@H](O)[C@@H](C)[C@H](OC(C)=O)[C@@H]1C` [RIFAMPIN] the Activity was “Active”.
